Activity calls are given as the source filed them.
Key:
[1] = target: Type-1 angiotensin II receptor (Homo sapiens, UniProt P30556); assay: antagonism of angiotensin II type 1 receptor – cell-based, uHTS hits, selectivity assay for APJ receptor antagonist project, dose response (AID 463214); format: functional;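 also: antagonist potency against angiotensin II stimulated AT1 response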
[2] = target: Beta-galactosidase (Escherichia coli, UniProt Q8VNN2); assay: PubChem AID 485352; format: functional
[3] = blockers of bursicon-stimulated LGR2 cAMP reporter – cell-based, HEK293, CRE-luciferase reporter, cherry pick, set 2, dose response (AID 743343); format: functional;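 also: transfected cells were stimulated with diluted bursicon conditioned medium after compound addition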
[4] = viability loss in HEK293 cells – cell-based, plate reader, cherry-picked samples, cytotoxicity control, dose response (AID 743446); format: functional
[5] = blockade of melanocortin 4 receptor signaling – cell-based, plate reader, cherry pick, counter-screen for LGR2 antagonist project, dose response (AID 743444); format: functional;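 also: transfected HEK 293 cells stimulated with alpha-MSH peptide; potency of inhibitors of the alpha-MSH evoked signal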
[6] = test system: A-375; assay: MITF: Counter assay: A375 proliferation Measured in Cell-Based System Using Plate Reader - 2084-03_Inhibitor_Dose_DryPowder_Activity. [Related pubchem assays (depositor defined):AID488944]; format: functional; settings: Homo sapiens
[7] = target: T1, Microphthalmia-associated transcription factor (Homo sapiens, UniProt O75030); assay: reducers of TRPM1 reporter luminescence, concentration series – cell-based, SK-MEL-5, cherry-picked, set 3, MITF inhibitor project, dose response (AID 493073); format: functional;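 also: SK-MEL-5 melanoma cells with luciferase driven by the MITF target TRPM1 promoter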
T1 sequence (O75030 whole entry): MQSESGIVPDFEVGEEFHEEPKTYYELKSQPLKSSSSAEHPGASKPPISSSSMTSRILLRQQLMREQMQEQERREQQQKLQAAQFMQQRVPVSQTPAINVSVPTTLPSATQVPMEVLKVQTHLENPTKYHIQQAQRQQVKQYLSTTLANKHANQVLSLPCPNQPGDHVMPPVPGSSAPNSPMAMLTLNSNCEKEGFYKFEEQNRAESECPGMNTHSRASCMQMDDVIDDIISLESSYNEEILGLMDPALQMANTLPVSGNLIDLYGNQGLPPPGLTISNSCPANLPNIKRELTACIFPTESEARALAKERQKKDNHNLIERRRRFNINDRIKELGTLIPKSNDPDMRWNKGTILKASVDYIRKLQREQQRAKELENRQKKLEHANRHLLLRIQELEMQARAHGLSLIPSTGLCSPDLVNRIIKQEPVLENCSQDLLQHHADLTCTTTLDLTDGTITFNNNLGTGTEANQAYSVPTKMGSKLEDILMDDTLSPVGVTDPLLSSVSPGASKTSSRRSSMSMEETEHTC

[8] = A549 cell cytotoxicity, dose response, cytotoxicity control, plate reader, cherry-pick, antagonist series (AID 743412); format: functional, cell-based
[9] = NIH3T3 cell viability loss – ATP luminescence, mouse fibroblasts, counter-screen, dose response (AID 2010); format: functional, cell-based;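 also: cells exposed to compound for about 90 hours before reading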
[10] = Trypanosoma cruzi growth suppression in host cells – NIH3T3 host cells, beta-gal luminescence, confirmation (AID 2044); format: functional, cell-based;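 also: intracellular parasites grown in NIH/3T3 mouse fibroblasts as host cells; luminescent beta-galactosidase reporter signal from transgenic T. cruzi replicating inside host cells; inhibitors lower the luminescence signal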
[11] = test system: Escherichia coli; assay: microbe, parasite or virus in culture
[12] = target: T2, DNA repair and recombination protein RAD54-like (Homo sapiens, UniProt Q92698); assay: RAD54 Holliday junction migration blockers – biochemical, fluorescence, cherry-picked samples, dose series, confirmation (AID 651657); format: functional
T2 sequence (Q92698 whole entry): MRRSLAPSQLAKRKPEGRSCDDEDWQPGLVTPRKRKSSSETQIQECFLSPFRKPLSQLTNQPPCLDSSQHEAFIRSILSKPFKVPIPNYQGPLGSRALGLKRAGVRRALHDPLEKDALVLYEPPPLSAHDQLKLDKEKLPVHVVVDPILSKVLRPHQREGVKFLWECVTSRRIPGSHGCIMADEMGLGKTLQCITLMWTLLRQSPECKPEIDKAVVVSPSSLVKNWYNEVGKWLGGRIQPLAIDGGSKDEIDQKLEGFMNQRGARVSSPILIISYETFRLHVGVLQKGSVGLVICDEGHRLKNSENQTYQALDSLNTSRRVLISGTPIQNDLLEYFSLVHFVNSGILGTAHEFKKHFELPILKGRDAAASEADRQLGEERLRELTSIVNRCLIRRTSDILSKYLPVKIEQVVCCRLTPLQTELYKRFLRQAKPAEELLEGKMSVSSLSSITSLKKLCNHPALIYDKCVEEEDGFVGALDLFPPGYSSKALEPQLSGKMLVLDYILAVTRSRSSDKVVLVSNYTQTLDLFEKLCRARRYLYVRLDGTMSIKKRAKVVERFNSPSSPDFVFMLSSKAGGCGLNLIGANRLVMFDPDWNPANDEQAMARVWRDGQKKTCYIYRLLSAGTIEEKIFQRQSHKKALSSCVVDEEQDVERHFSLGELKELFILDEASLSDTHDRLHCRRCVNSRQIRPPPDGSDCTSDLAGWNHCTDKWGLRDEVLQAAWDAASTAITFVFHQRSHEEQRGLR

[13] = target: T3, DNA repair protein RAD52 homolog (Homo sapiens, UniProt P43351); format: functional, biochemical
T3 sequence (P43351 whole entry): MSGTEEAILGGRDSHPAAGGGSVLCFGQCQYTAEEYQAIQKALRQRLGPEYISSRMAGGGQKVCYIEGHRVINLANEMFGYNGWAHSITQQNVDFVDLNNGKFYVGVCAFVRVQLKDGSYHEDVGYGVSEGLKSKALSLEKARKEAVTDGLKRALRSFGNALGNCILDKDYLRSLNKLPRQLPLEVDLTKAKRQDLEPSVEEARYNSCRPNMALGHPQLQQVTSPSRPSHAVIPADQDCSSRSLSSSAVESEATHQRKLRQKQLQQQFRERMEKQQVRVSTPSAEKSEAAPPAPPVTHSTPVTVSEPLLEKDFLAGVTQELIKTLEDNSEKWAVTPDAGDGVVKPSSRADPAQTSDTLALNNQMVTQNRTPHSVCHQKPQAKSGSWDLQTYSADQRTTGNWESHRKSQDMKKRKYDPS

[14] = test system: A-375; assay: proliferation inhibition in MITF-low A375 cells – cell-based, cherry-pick samples, set 2, counter-screen for MITF modulator project, dose response (AID 540335); format: functional; settings: Homo sapiens
[15] = target: ATP-dependent molecular chaperone HSP82 (Candida albicans (strain WO-1) (Yeast), UniProt C4YTQ8); assay: steroid-induced GRE reporter decrease in yeast – S. cerevisiae, luminescence, Hsp90 inhibitor project, dose response (AID 2400); format: functional, cell-based;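 also: beta-galactosidase luminescence from glucocorticoid response element reporter as proxy for Hsp90 function; inhibitor potency where signal loss means Hsp90 inhibition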
Sequence of ATP-dependent molecular chaperone HSP82 (C4YTQ8 whole entry): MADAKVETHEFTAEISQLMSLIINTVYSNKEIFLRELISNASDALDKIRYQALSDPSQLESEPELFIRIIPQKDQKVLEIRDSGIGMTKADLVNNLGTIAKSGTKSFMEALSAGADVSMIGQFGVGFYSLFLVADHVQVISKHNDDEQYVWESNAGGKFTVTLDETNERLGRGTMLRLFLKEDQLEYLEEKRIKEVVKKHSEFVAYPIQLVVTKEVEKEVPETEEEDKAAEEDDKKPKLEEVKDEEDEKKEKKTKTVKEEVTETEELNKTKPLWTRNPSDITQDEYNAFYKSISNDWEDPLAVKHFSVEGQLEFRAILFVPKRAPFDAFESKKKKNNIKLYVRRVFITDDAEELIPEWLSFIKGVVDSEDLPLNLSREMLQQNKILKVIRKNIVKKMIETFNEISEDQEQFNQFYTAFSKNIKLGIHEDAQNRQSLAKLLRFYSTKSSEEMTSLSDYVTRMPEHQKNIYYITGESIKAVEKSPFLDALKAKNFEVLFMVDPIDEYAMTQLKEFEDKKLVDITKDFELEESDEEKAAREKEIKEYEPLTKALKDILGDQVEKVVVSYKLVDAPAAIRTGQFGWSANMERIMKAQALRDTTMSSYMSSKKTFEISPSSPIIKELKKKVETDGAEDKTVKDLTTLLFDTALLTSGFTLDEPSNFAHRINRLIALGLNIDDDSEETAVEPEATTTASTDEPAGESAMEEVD

[16] = target: Beta-lactamase (Pseudomonas aeruginosa, UniProt Q79MP6);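 also: biochemical dose-response test of metallo-beta-lactamase enzyme inhibition, read out by epi-absorbance; purified recombinant IMP-1 metallo-beta-lactamase with nitrocefin as substrate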
Sequence of Beta-lactamase (Pseudomonas aeruginosa, UniProt Q79MP6) (Q79MP6 whole entry): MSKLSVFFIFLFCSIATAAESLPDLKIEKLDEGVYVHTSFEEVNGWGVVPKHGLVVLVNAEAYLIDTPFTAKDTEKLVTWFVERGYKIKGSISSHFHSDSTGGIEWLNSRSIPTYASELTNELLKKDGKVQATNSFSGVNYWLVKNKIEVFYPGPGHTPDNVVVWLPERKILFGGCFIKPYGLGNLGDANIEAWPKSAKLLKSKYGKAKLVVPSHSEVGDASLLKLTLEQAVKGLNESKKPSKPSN

[17] = target: Serine/threonine-protein phosphatase (Candida dubliniensis (strain CD36 / CBS 7987 / NCPF 3949 / NRRLY-17841) (Yeast), UniProt B9W6M3); assay: blockers of CaCl2-induced CDRE-lacZ signaling – S. cerevisiae, luminescence, secondary, dose response (AID 2388); format: functional, cell-based;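 also: yeast reporter cells carrying a calcineurin-responsive lacZ construct stimulated with calcium chloride; luminescent beta-galactosidase reporter signal in whole cells rather than isolated phosphatase activity; potency for inhibition where a drop in reporter signal means calcineurin blockade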
Sequence of Serine/threonine-protein phosphatase (B9W6M3 whole entry): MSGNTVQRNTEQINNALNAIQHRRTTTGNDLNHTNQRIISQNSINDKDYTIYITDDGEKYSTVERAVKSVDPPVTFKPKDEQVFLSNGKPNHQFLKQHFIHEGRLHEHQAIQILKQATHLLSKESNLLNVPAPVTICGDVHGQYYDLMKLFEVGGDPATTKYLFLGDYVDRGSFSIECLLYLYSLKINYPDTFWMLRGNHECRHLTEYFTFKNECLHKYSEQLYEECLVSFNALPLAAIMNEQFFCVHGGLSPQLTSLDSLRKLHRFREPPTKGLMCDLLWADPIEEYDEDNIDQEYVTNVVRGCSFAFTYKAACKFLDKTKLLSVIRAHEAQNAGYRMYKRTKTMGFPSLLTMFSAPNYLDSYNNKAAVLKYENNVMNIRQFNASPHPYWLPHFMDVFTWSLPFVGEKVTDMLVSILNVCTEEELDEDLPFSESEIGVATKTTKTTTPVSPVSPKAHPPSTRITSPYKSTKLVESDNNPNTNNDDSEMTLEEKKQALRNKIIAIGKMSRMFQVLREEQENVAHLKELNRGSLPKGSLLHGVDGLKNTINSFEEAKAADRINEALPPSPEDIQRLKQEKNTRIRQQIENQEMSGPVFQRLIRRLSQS

[18] = fluconazole-exposed Candida albicans growth modulators – fluorescence, retest, confirmation (AID 2467); format: functional, cell-based
[19] = target: Beta-lactamase (Salmonella choleraesuis (strain SC-B67), UniProt Q5J463)
Sequence of Beta-lactamase (Salmonella choleraesuis (strain SC-B67), UniProt Q5J463) (Q5J463 whole entry): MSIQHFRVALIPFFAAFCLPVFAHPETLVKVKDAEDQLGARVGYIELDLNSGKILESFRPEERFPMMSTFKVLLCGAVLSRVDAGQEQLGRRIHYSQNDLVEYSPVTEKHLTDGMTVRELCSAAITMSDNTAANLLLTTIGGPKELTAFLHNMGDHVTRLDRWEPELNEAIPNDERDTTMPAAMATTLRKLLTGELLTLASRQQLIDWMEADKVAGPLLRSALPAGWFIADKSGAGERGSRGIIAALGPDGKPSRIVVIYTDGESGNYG

[20] = NIH-3T3 fibroblast cytotoxicity, dose response, cytotoxicity control, cell-based, fluorescence, Alamar Blue, secondary assay (AID 2327); format: functional;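 also: NIH-3T3 mouse fibroblasts cultured with fluconazole at 8 µg/mL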
[21] = target: T4, COUP transcription factor 2 (Homo sapiens, UniProt P24468); assay: Luminescence-based cell-based high throughput dose response assay to identify inhibitors of COUP-TFII (NR2F2).; format: functional;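 also: HEK293 cells transiently cotransfected with COUP-TFII expression vector and reporter; luciferase reporter luminescence driven by COUP-TFII from the pX2-168 reporter plasmid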
T4 sequence (P24468 whole entry): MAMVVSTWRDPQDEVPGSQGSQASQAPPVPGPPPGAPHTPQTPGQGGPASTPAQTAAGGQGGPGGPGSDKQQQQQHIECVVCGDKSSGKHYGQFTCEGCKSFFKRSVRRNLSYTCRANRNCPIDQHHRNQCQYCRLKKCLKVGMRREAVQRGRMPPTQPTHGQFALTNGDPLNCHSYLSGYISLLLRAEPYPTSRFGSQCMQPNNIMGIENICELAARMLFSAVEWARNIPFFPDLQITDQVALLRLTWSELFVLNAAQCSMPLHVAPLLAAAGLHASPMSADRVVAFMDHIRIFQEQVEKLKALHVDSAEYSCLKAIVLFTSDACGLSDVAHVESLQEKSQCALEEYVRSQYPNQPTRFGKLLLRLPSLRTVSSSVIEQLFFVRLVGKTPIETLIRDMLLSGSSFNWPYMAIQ

[22] = HEK-293T viability loss, compound-treated – cell-based, uHTS hits, cytotoxicity control for B/T-cell NF-kB inhibitor project, dose response (AID 489019); format: functional;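 also: IC50 reflects cytotoxicity as loss of cell viability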
[23] = cells
[24] = test system: Jurkat; assay: blockers of NF-kB activation in T cells – Jurkat, luciferase reporter, luminescence, B- and T-cell, dose response (AID 489004); format: functional, cell-based; settings: Homo sapiens;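 also: NF-kB luciferase reporter Jurkat cells stimulated with PMA plus ionomycin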

Sequence of Beta-galactosidase (Q8VNN2 whole entry): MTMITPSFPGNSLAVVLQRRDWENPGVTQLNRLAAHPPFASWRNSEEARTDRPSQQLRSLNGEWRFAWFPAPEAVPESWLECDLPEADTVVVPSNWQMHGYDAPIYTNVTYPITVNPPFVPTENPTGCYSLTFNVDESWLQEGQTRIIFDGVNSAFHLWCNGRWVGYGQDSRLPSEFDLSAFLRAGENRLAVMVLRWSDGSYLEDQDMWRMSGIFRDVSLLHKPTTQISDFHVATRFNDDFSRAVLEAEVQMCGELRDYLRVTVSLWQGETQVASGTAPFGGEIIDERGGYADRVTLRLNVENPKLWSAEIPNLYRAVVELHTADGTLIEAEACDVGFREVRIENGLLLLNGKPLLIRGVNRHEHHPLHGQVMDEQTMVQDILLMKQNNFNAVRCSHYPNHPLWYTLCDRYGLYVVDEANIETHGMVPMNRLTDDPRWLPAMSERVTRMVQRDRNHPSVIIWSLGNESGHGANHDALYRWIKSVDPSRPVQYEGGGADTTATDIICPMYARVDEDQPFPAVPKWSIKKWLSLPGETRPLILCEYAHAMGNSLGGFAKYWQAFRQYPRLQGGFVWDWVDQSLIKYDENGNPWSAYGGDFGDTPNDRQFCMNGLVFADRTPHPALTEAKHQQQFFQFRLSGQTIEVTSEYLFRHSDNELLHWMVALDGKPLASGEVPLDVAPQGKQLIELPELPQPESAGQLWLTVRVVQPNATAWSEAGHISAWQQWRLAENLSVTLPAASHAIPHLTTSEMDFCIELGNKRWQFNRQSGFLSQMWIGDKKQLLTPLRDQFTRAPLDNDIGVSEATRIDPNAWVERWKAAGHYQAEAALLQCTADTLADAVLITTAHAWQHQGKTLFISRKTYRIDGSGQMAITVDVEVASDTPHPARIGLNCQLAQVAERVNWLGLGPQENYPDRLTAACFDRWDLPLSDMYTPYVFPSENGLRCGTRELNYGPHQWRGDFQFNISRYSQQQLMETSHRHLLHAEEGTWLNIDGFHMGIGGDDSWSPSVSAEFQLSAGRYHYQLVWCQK
Sequence of Type-1 angiotensin II receptor (P30556 whole entry): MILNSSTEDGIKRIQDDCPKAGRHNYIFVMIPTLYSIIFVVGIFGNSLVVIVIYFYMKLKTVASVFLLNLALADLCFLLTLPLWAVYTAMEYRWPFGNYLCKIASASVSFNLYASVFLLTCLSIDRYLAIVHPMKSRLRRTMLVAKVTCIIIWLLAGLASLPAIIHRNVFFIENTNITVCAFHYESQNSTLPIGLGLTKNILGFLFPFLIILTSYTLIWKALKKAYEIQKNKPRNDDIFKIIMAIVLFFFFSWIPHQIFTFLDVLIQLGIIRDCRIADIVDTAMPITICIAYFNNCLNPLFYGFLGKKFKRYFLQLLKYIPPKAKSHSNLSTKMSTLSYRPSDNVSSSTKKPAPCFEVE

## CN(C)CC(=O)c1ccc(-c2ccccc2)cc1
[1]
  IC50: > 40 µM (not active)
[2]
  EC50: > 40 µM (inactive)

## CCCNC(=O)COC(=O)c1ccccc1C(=O)c1ccc(Cl)c([N+](=O)[O-])c1
[3]
  AC50: 8.85 µM (active)
[4]
  AC50: 10.7 µM (active)
[5]
  AC50: 10.6 µM (active)
[6]
  AC50: 34.3 µM (active)
[7]
  AC50: 8.34 µM (active)
[8]
  AC50: 7.32 µM (active)

## CCCCN(CC)CCN=C(S)Nc1ccc2nc(N3CCN(C)CC3)cc(C)c2c1
[9]
  EC50: 4.9 µM (active)
[10]
  EC50: 0.34 µM (active)
[11]
  AC50: 56 µM (active)
[12]
  AC50: 22.5 µM (active)
[13]
  AC50: 5.01 µM (active)

## O=C(COc1ccc(Cl)cc1Cl)Nc1ccccn1
[7]
  AC50: 2.19 µM (active)
[14]
  AC50: 18.4 µM (active)

## COc1ccc(OC)c(-n2c(SCC(=O)N3CCc4ccccc43)nc3c(c2=O)SCC3)c1
[11]
  AC50: 71.1 µM (active)

## CC(C)n1cc(/C=C/c2cc[n+](C)cc2)c2ccccc21
[15]
  EC50: > 150 µM (inactive)
[16]
  IC50: 41.8 µM (inactive)
[17]
  EC50: > 180 µM (inactive)
[18]
  EC50: 0.634 µM (active)
[7]
  AC50: 8.14 µM (active)
[19]
  IC50: 40.1 µM (inactive)
[20]
  EC50: 130 µM (inconclusive)

## CC[n+]1c(C=C2C=C(C)OC(C)=C2)sc2ccccc21
[9]
  EC50: > 60 µM (not active)
[21]
  IC50: 4.51 µM (active)
[15]
  EC50: 55.9 µM (active)
[17]
  EC50: 29.6 µM (active)
[22]
  IC50: > 80 µM (inactive)
[10]
  EC50: < 0.1 µM (active)
[18]
  EC50: 0.239 µM (active)
[23]
  EC50: 0.006 µM (active)
[13]
  AC50: 8.17 µM (active)
[20]
  EC50: 126 µM (active)
[24]
  IC50: 3.99 µM (active)

— ChEMBL document CHEMBL1201862, “PubChem BioAssay data set” (2004)
